The supplement of paper PMC11061612

Tests used:
Test in all cases: combination Emax (second highest fraction inhibited in the dose matrix, 72 h); higher = more inhibition; extreme values may be limits of the assay
[1] = test system: EPLC-272H (Other Solid Carcinomas)
Outline: (§1)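 After 24 hours at 37°C and 5% CO2 in 1536-well plates, cells in DMEM/F12 or RPMI plus 10% FBS received two-drug dose matrices for 72 hours. Viability came from CellTiter-Glo 2.0 luminescence and was scaled as inhibition, anchored at 0 by vehicle wells and at 1 by blank wells. Combination Emax is taken as the second-highest inhibition in the matrix, and Bliss excess as the observed combination effect less EA + EB − EA·EB, with EA and EB the single-agent effects.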

HCC70 (Breast Carcinoma) = test system: HCC70 (Breast Carcinoma)
Outline: as §1

[2] = test system: NCI-H2228 (Lung Adenocarcinoma)
Outline: as §1

[3] = test system: CESS (Acute Myeloid Leukemia)
Outline: as §1

5637 (Bladder Carcinoma) = test system: 5637 (Bladder Carcinoma)
Outline: as §1

[4] = test system: HCC1428 (Breast Carcinoma)
Outline: as §1

[5] = test system: HT55 (Colorectal Carcinoma)
Outline: as §1

[6] = test system: MHH-ES-1 (Ewing's Sarcoma)
Outline: as §1

[7] = test system: G-402 (Other Solid Carcinomas)
Outline: as §1

[8] = test system: ESO26 (Esophageal Adenocarcinoma)
Outline: as §1

[9] = test system: SK-HEP-1 (Hepatocellular Carcinoma)
Outline: as §1

[10] = test system: NCI-H2087 (Lung Adenocarcinoma)
Outline: as §1

[11] = test system: SW620 (Colorectal Carcinoma)
Outline: as §1

EW-16 (Ewing's Sarcoma) = test system: EW-16 (Ewing's Sarcoma)
Outline: as §1

[12] = test system: JVM-2 (B-Cell Non-Hodgkin's Lymphoma)
Outline: as §1

[13] = test system: Jurkat (T-Lymphoblastic Leukemia)
Outline: as §1

[14] = test system: CGTH-W-1 (Thyroid Gland Carcinoma)
Outline: as §1

RH-41 (Rhabdomyosarcoma) = test system: RH-41 (Rhabdomyosarcoma)
Outline: as §1

NB13 (Neuroblastoma) = test system: NB13 (Neuroblastoma)
Outline: as §1

CN(C)CCCOc1ccc(-c2ccc3ncc4c(c3c2)n(C2CCOCC2)c(=O)n4C)cn1 [AZD0156] + O=C(c1cc(Cc2n[nH]c(=O)c3ccccc23)ccc1F)N1CCN(C(=O)C2CC2)CC1 [Olaparib] (first compound max 3 µM, partner max 3 µM)
combination Emax [1]: 0.503
combination Emax (HCC70 (Breast Carcinoma)): 0.359
combination Emax [2]: 0.439
combination Emax [3]: 0.376
combination Emax (5637 (Bladder Carcinoma)): 0.439
combination Emax [4]: 0.228
combination Emax [5]: 0.209
combination Emax [6]: 0.801
combination Emax [7]: 0.41
combination Emax [8]: 0.206
combination Emax [9]: 0.332
combination Emax [10]: 0.12
combination Emax [11]: 0.337
combination Emax (EW-16 (Ewing's Sarcoma)): 0.412
combination Emax [12]: 0.533
combination Emax [13]: 0.511
combination Emax [14]: 0.214
combination Emax (RH-41 (Rhabdomyosarcoma)): 0.586

C=CCn1c(=O)c2cnc(Nc3ccc(N4CCN(C)CC4)cc3)nc2n1-c1cccc(C(C)(C)O)n1 [AZD1775] + C1CN(CCC1(C(=O)N[C@@H](CCO)C2=CC=C(C=C2)Cl)N)C3=NC=NC4=C3C=CN4 [Capivasertib] (first compound max 3 µM, partner max 3 µM)
combination Emax [1]: 0.834
combination Emax (HCC70 (Breast Carcinoma)): 0.754
combination Emax [2]: 0.59
combination Emax [3]: 0.874
combination Emax (5637 (Bladder Carcinoma)): 0.957
combination Emax [4]: 0.524
combination Emax [5]: 0.831
combination Emax [6]: 0.833
combination Emax [7]: 0.619
combination Emax [8]: 0.707
combination Emax [9]: 0.503
combination Emax [10]: 0.501
combination Emax [11]: 0.8
combination Emax (EW-16 (Ewing's Sarcoma)): 0.888
combination Emax [12]: 0.93
combination Emax [13]: 0.986
combination Emax [14]: 0.211
combination Emax (RH-41 (Rhabdomyosarcoma)): 0.801

C=CCn1c(=O)c2cnc(Nc3ccc(N4CCN(C)CC4)cc3)nc2n1-c1cccc(C(C)(C)O)n1 [AZD1775] + C[C@@H]1COCCN1C2=NC(=NC(=C2)C3(CC3)[S@](=N)(=O)C)C4=C5C=CNC5=NC=C4 [AZD6738] (first compound max 1 µM, partner max 10 µM)
combination Emax [1]: 0.882
combination Emax (NB13 (Neuroblastoma)): 0.953
combination Emax (HCC70 (Breast Carcinoma)): 0.898
combination Emax [2]: 0.653
combination Emax [3]: 0.937
combination Emax (5637 (Bladder Carcinoma)): 0.898
combination Emax [4]: 0.49
combination Emax [5]: 0.782
combination Emax [6]: 0.714
combination Emax [7]: 0.674
combination Emax [8]: 0.399
combination Emax [9]: 0.65
combination Emax [10]: 0.729
combination Emax [11]: 0.83
combination Emax (EW-16 (Ewing's Sarcoma)): 0.771
combination Emax [12]: 0.901
combination Emax [13]: 0.991
combination Emax [14]: 0.434
combination Emax (RH-41 (Rhabdomyosarcoma)): 0.995
